# Measurements: patent EP0283349A1, “Process for obtaining tannic principles of vegetable origin, cosmetologic and pharmaceutical composition containing the tannic principle obtained by the process” (Lamaison, Jean-Louis, priority 1987, dated 1988)
# Target: élastase pancréatique porcine (Sus scrofa, UniProt P00772)
# Test: Elastase inhibition (method of SHINOGI et al., substrate Boc-Ala-ONp)
# Assay type: biochemical
# Settings: mass of inhibitor giving 50 % inhibition after 30 minutes; referred to the dry plant drug for plant extracts, real mass for defined principles
# Experimental: Les dosages d'activités inhibitrices de l'élastase, de la trypsine et de l'α-chymotrypsine ont été réalisés selon la méthode de SHINOGI et al. (1), la quantité d'inhibiteur étant adaptée de manière à obtenir une inhibition voisine de 50 % (I50) après 30 minutes, les extraits étant généralement préparés à partir de 0,5 g de poudre (250) de plante sèche dans 20 ml d'éthanol à 50 % V/V, les principes définis en solution à 1 mg/ml d'éthanol à 50 % V/V.
# élastase pancréatique porcine, sequence (P00772 27-266): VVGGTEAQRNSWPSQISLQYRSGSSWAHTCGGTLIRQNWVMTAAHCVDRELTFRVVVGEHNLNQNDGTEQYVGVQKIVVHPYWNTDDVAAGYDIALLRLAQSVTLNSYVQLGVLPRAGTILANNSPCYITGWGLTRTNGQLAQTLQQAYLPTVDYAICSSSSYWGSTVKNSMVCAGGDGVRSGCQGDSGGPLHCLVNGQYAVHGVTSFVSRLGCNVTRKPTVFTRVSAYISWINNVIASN
row,Molecule,I 50 Elas-tase
1,Catéchine-épicatéchine,35 µg
2,Ethoxazo-rutine,250 µg
3,O=c1c(O)c(-c2ccc(O[C@@H]3O[C@H](CO)[C@@H](O)[C@H](O)[C@H]3O)c(O)c2)oc2cc(O)cc(O)c12 [Quercétine 4'-Glucoside],250 µg
4,O=c1c(O)c(-c2ccc(O)cc2O)oc2cc(O)cc(O)c12 [Morine],60 µg
5,O=C(O)c1cc(O)c(O)c(O)c1 [Acide gallique],100 µg
6,Acide tannique,50 µg
7,Hamamélitanin,600 µg
8,O=c1c(O[C@@H]2O[C@H](CO)[C@H](O)[C@H](O)[C@H]2O)c(-c2ccc(O)c(O)c2)oc2cc(O)cc(O)c12 [Hypéroside],275 µg
9,C[C@@H]1O[C@@H](OC[C@H]2O[C@@H](Oc3c(-c4ccc(O)c(O)c4)oc4cc(O)cc(O)c4c3=O)[C@H](O)[C@@H](O)[C@@H]2O)[C@H](O)[C@H](O)[C@H]1O [Rutoside],150 µg
